From US9302999B2, “Substituted triazoles as herbicides” (E. I. DU PONT DE NEMOURS AND COMPANY, priority 2012, dated 2016)

Tests used:
Assay type in all cases: in vivo
[1] = system: barnyardgrass (Echinochloa crus-galli); assay: Test A pre-/postemergence: barnyardgrass; details: for Barnyardgrass plant response rating: Postemergence; for Plant response rating, Barnyardgrass: Preemergence
How it was run: (§1)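 Whole-plant greenhouse assay in loam/sand. Preemergence directed soil spray plus simultaneous postemergence spray (one- to two-leaf stage, 2–10 cm). Rated visually ~10 days later, 0 = no effect, 100 = complete control.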

[2] = system: crabgrass, large (large crabgrass, Digitaria sanguinalis); assay: Test A pre-/postemergence: crabgrass, large; details: for Crabgrass, Large plant response rating: Postemergence; for Plant response rating, Crabgrass, Large: Preemergence
How it was run: as §1

[3] = system: foxtail, giant (giant foxtail, Setaria faberii); assay: Test A pre-/postemergence: foxtail, giant; details: for Foxtail, Giant plant response rating: Postemergence; for Plant response rating, Foxtail, Giant: Preemergence
How it was run: as §1

[4] = system: morningglory (Ipomoea spp.); assay: Test A pre-/postemergence: morningglory; details: for Morningglory plant response rating: Postemergence; for Plant response rating, Morningglory: Preemergence
How it was run: as §1

[5] = system: pigweed (Amaranthus retroflexus); assay: Test A pre-/postemergence: pigweed; details: for Pigweed plant response rating: Postemergence; for Plant response rating, Pigweed: Preemergence
How it was run: as §1

[6] = system: velvetleaf (Abutilon theophrasti); assay: Test A pre-/postemergence: velvetleaf; details: for Velvetleaf plant response rating: Postemergence; for Plant response rating, Velvetleaf: Preemergence
How it was run: as §1

[7] = system: wheat (Triticum aestivum); assay: Test A pre-/postemergence: wheat; details: for Wheat plant response rating: Postemergence; for Plant response rating, Wheat: Preemergence
How it was run: as §1

corn (Zea mays) = assay: Test A pre-/postemergence: corn; details: for Corn plant response rating: Postemergence; for Plant response rating, Corn: Preemergence
How it was run: as §1

rice (Oryza sativa) = assay: Test C flooded paddy test: rice; details: scale 0 to 100 (0 no effect, 100 complete control)
Description: (§2) Plant species in the flooded paddy test consisted of rice (Oryza sativa), sedge, umbrella (small-flower umbrella sedge, Cyperus difformis), ducksalad (Heteranthera limosa) and barnyardgrass (Echinochloa crus-galli) grown to the 2-leaf stage for testing. At time of treatment, test pots were flooded to 3 cm above the soil surface, treated by application of test compounds directly to the paddy water, and then maintained at that water depth for the duration of the test.
(§3) Treated plants and controls were maintained in a greenhouse for 13 to 15 days, after which time all species were compared to controls and visually evaluated. Plant response ratings, summarized in Table C, are based on a scale of 0 to 100 where 0 is no effect and 100 is complete control. A dash (-) response means no test result.

[8] = system: sedge, umbrella (small-flower umbrella sedge, Cyperus difformis); assay: Test C flooded paddy test: sedge, umbrella; details: scale 0 to 100 (0 no effect, 100 complete control)
Description: as §2, §3

[9] = system: ducksalad (Heteranthera limosa); assay: Test C flooded paddy test: ducksalad; details: scale 0 to 100 (0 no effect, 100 complete control)
How it was run: (§4)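 Plants were grown to the 2-leaf stage, pots flooded to 3 cm above soil, and test compounds applied directly to the paddy water, with that depth held throughout. After 13 to 15 days in a greenhouse, injury was visually rated against controls on a 0 (no effect) to 100 (complete control) scale.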

[10] = system: barnyardgrass (Echinochloa crus-galli); assay: Test C flooded paddy test: barnyardgrass; details: scale 0 to 100 (0 no effect, 100 complete control)
How it was run: as §4

[11] = 125 g ai/ha, 0 to 100 scale, 0 is no effect, 100 is complete control
[12] = 500 g ai/ha, visual rating on 0 to 100 scale (0 no effect, 100 complete control), approximately ten days
[13] = 125 g ai/ha, 0 to 100 scale (0 no effect, 100 complete control)
[14] = 500 g ai/ha, 0 to 100 scale, 0 is no effect, 100 is complete control
[15] = Flood (flooded paddy test), 62 g ai/ha, visual rating after 13 to 15 days
[16] = Flood (flooded paddy test), 125 g ai/ha, visual rating after 13 to 15 days
[17] = Flood (flooded paddy test), 250 g ai/ha, visual rating after 13 to 15 days

COc1nn(-c2ccc(C(F)(F)F)cc2)nc1Cn1nc(C(F)(F)F)cc1C(F)(F)F [Compound 30]
30: Plant response rating, Sedge, Umbrella [8, 17]
0: Barnyardgrass plant response rating [1, 11] | Barnyardgrass plant response rating [1, 12] | Plant response rating, Barnyardgrass [1, 13] | Plant response rating, Barnyardgrass [1, 14] | Crabgrass, Large plant response rating [2, 11] | Crabgrass, Large plant response rating [2, 12] | Plant response rating, Crabgrass, Large [2, 13] | Plant response rating, Crabgrass, Large [2, 14] | Foxtail, Giant plant response rating [3, 11] | Foxtail, Giant plant response rating [3, 12] | Plant response rating, Foxtail, Giant [3, 13] | Plant response rating, Foxtail, Giant [3, 14] | Morningglory plant response rating [4, 11] | Morningglory plant response rating [4, 12] | Plant response rating, Morningglory [4, 13] | Plant response rating, Morningglory [4, 14] | Pigweed plant response rating [5, 11] | Pigweed plant response rating [5, 12] | Plant response rating, Pigweed [5, 13] | Plant response rating, Pigweed [5, 14] | Velvetleaf plant response rating [6, 11] | Velvetleaf plant response rating [6, 12] | Plant response rating, Velvetleaf [6, 13] | Plant response rating, Velvetleaf [6, 14] | Wheat plant response rating [7, 11] | Wheat plant response rating [7, 12] | Plant response rating, Wheat [7, 13] | Plant response rating, Wheat [7, 14] | Corn plant response rating (corn (Zea mays); [11]) | Corn plant response rating (corn (Zea mays); [12]) | Plant response rating, Corn (corn (Zea mays); [13]) | Plant response rating, Corn (corn (Zea mays); [14]) | Plant response rating, Rice (rice (Oryza sativa); [15]) | Plant response rating, Rice (rice (Oryza sativa); [16]) | Plant response rating, Rice (rice (Oryza sativa); [17]) | Plant response rating, Rice (rice (Oryza sativa); Flood, 31 g ai/ha) | Plant response rating, Sedge, Umbrella [8, 15] | Plant response rating, Sedge, Umbrella ([8]; Flood, 31 g ai/ha) | Plant response rating, Ducksalad [9, 15] | Plant response rating, Ducksalad [9, 16] | Plant response rating, Ducksalad [9, 17] | Plant response rating, Ducksalad ([9]; Flood, 31 g ai/ha) | Plant response rating, Barnyardgrass [10, 15] | Plant response rating, Barnyardgrass [10, 16] | Plant response rating, Barnyardgrass [10, 17] | Plant response rating, Barnyardgrass ([10]; Flood, 31 g ai/ha)
20: Plant response rating, Sedge, Umbrella [8, 16]
